Source: ChEMBL document CHEMBL1909046, “DrugMatrix in vitro pharmacology data”

What was measured:
Cytochrome P450 1A2 = target: T1, Cytochrome P450 1A2 (Homo sapiens, UniProt P05177); settings: bti-tn-5b1-4
T1 sequence (P05177 whole entry): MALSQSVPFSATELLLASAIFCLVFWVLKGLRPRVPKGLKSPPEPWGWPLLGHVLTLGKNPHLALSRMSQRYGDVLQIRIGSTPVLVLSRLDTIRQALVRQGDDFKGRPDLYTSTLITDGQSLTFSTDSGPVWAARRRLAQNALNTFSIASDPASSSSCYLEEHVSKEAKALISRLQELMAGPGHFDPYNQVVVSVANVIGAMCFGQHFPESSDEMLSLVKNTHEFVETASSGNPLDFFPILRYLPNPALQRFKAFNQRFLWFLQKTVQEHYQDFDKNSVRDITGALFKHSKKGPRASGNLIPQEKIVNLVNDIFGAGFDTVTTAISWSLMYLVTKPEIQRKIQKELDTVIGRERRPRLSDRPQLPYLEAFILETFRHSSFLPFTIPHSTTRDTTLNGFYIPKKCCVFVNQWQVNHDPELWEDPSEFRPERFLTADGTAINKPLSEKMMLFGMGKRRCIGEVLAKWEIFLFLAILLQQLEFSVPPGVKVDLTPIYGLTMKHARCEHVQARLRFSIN

[1] = target: T2, 5-hydroxytryptamine receptor 1A (Rattus norvegicus, UniProt P19327); format: cell membranes, CHO-K1, Membrane
T2 sequence (P19327 whole entry): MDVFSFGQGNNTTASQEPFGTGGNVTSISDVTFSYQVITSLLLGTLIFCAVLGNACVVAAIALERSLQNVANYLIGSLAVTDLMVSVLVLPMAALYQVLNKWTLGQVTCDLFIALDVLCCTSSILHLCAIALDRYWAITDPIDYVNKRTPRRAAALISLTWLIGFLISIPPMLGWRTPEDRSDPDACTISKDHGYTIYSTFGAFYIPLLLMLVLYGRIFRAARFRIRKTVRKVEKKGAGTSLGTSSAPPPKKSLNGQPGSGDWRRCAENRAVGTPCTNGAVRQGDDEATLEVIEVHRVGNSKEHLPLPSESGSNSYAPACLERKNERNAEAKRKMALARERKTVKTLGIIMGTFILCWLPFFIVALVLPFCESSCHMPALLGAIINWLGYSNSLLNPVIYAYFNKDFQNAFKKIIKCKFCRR

Cytochrome P450 2E1 = Cytochrome P450 2E1 (Homo sapiens, UniProt P05181); settings: bti-tn-5b1-4
Sequence of Cytochrome P450 2E1 (P05181 whole entry): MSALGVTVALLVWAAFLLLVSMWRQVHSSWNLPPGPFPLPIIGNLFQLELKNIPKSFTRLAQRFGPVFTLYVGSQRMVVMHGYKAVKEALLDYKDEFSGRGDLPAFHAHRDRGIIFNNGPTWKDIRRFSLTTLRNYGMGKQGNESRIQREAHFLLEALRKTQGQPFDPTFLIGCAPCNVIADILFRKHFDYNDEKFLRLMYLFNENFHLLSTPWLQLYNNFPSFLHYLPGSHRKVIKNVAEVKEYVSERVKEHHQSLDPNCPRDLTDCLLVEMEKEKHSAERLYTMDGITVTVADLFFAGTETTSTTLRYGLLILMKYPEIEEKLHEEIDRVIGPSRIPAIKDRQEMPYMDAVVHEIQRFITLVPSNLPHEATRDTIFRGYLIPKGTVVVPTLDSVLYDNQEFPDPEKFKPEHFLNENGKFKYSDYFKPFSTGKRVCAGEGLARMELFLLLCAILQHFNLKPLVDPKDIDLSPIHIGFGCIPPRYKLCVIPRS

Substance-P receptor = Substance-P receptor (Homo sapiens, UniProt P25103); format: cell membranes, CHO, Membrane
Sequence of Substance-P receptor (P25103 whole entry): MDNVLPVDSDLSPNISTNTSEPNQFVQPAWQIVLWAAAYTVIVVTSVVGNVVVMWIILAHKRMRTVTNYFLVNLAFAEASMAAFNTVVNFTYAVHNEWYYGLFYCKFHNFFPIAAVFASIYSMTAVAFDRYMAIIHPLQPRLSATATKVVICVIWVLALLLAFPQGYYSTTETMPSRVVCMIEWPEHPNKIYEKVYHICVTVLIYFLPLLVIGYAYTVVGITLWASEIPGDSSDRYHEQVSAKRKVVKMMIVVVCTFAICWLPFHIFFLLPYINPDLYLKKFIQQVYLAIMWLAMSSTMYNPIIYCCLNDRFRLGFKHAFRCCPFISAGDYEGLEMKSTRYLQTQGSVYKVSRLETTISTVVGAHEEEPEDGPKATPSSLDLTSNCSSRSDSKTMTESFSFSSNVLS

[2] = target: Prostaglandin G/H synthase 1 (Homo sapiens, UniProt P23219); experiment: biochemical; format: tissue-based, Platelet;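 note: inhibition of COX-1 enzyme activity, with arachidonic acid supplied as substrate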
Sequence of Prostaglandin G/H synthase 1 (P23219 whole entry): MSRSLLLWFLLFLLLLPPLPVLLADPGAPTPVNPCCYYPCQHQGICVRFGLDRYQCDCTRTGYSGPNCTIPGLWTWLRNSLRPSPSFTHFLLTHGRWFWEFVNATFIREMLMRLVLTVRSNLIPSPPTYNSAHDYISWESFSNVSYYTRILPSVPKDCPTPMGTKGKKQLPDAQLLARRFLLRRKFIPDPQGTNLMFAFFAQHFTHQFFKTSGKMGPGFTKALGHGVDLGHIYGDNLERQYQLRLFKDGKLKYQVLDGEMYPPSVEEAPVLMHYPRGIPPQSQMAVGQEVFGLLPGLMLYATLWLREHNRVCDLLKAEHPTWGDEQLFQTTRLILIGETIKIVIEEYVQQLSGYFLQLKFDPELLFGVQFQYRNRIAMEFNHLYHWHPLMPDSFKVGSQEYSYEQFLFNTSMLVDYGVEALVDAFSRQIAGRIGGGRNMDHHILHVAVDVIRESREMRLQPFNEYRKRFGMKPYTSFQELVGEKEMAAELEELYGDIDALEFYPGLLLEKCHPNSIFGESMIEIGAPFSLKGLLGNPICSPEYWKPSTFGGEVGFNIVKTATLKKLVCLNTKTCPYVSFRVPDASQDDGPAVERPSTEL

[3] = target: Vascular endothelial growth factor receptor 1 (Homo sapiens, UniProt P17948); format: cell-based; settings: huvec
Sequence of Vascular endothelial growth factor receptor 1 (P17948 whole entry): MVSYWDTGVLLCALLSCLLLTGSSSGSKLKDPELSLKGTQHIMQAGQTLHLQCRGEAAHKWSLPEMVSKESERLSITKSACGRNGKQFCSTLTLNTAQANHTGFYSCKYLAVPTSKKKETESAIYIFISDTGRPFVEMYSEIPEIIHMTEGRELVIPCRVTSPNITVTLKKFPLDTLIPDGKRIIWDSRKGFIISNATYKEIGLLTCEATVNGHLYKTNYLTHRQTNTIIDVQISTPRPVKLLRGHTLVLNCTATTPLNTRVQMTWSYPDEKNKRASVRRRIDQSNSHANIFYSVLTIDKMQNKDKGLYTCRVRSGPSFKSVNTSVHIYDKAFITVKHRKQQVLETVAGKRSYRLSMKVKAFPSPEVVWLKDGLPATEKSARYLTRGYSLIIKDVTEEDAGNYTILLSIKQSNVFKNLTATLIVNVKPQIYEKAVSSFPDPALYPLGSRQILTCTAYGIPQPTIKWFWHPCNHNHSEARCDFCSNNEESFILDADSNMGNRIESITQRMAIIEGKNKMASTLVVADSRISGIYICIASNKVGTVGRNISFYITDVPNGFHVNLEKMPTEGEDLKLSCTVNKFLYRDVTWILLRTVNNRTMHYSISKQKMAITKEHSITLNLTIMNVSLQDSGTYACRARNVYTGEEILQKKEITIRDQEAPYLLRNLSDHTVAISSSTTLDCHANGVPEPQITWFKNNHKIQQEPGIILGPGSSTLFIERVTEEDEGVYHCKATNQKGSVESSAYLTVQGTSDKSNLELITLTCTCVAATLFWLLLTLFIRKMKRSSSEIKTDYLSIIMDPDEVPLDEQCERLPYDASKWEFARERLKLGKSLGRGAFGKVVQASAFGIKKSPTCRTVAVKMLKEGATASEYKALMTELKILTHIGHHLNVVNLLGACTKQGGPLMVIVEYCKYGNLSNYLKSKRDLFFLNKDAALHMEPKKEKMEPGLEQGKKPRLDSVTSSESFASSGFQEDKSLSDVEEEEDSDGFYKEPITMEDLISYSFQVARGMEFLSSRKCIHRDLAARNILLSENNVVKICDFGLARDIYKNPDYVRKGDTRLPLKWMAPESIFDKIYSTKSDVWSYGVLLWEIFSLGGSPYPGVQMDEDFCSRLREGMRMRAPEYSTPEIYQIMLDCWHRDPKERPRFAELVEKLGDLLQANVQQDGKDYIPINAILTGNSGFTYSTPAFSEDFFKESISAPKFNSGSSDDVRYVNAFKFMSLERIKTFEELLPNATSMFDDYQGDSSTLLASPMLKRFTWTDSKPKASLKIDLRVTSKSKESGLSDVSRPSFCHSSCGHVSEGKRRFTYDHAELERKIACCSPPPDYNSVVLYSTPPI

Caspase-1 = target: T3, Caspase-1 (Homo sapiens, UniProt P29466); design: species or system Escherichia coli;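 note: Caspase-1 enzyme inhibition assay with a peptide substrate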
T3 sequence (P29466 whole entry): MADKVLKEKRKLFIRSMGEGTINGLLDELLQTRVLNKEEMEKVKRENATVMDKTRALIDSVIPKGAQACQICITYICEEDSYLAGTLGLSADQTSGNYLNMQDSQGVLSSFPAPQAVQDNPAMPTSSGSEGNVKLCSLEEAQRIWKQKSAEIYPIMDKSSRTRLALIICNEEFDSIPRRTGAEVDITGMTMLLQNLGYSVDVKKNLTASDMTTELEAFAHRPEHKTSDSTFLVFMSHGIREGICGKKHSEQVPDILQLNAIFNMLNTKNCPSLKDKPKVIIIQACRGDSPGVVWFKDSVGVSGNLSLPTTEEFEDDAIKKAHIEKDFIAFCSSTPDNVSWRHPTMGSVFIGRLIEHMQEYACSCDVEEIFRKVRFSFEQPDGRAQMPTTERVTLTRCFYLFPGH
Note: in other assays of this panel Not Active means under 50% inhibition at 10 µM.

| Compound | IC50 (Cytochrome P450 1A2) | Ki (Cytochrome P450 1A2) | IC50 ([1]; read-out: IC50) [µM] | Ki ([1]; read-out: Ki) [µM] | IC50 (Cytochrome P450 2E1) | Ki (Cytochrome P450 2E1) | IC50 (Substance-P receptor; read-out: IC50) [µM] | Ki (Substance-P receptor; read-out: Ki) [µM] | IC50 ([2]; platelet) | IC50 [3] | IC50 (Caspase-1) | IC50 ([1]; cho-k1) | IC50 (Substance-P receptor; cho) | IC50 ([2]; read-out: IC50) [µM] | Ki ([1]; cho-k1) | Ki (Substance-P receptor; cho) | Ki ([2]; platelet) | Ki [3] | Ki (Caspase-1) |
| --- | --- | --- | --- | --- | --- | --- | --- | --- | --- | --- | --- | --- | --- | --- | --- | --- | --- | --- | --- |
| Clc1ccc(COC(Cn2ccnc2)c2ccc(Cl)cc2Cl)c(Cl)c1 (stereo not drawn) [MICONAZOLE] | Not Active | Not Active | 11.5 | 6.56 | Not Active | Not Active | 6.81 | 3.72 | Not Active | Not Active | Not Active |  |  |  |  |  |  |  |  |
| CC1CCC(NC(=O)N(CCCl)N=O)CC1 (stereo not drawn) [SEMUSTINE] | Not Active | Not Active |  |  | Not Active | Not Active |  |  | Not Active | Not Active | Not Active | Not Active | Not Active |  |  |  |  |  |  |
| O=C1C[C@@H]2OCC=C3CN4CC[C@]56c7ccccc7N1[C@H]5[C@H]2[C@H]3C[C@H]46 [STRYCHNINE] | Not Active | Not Active |  |  | Not Active | Not Active |  |  | Not Active | Not Active | Not Active | Not Active | Not Active |  |  |  |  |  |  |
| C[S+]([O-])c1ccc(-c2nc(-c3ccncc3)c(-c3ccc(F)cc3)[nH]2)cc1 (stereo not drawn) [SB-203580] |  |  |  |  | Not Active | Not Active |  |  | Not Active |  | Not Active | Not Active | Not Active |  |  |  |  |  |  |
| CC(=N)S [THIOACETAMIDE] | Not Active | Not Active |  |  | Not Active | Not Active |  |  | Not Active | Not Active | Not Active | Not Active | Not Active |  |  |  |  |  |  |
| COC(=O)[C@H]1[C@H]2C[C@@H]3c4[nH]c5cc(OC)ccc5c4CCN3C[C@H]2C[C@@H](OC(=O)c2cc(OC)c(OC)c(OC)c2)[C@@H]1OC [RESERPINE] | Not Active | Not Active |  |  | Not Active | Not Active |  |  | Not Active | Not Active | Not Active | Not Active | Not Active |  |  |  |  |  |  |
| O=c1[nH]c(=O)n(C2CCCO2)cc1F (stereo not drawn) [TEGAFUR] | Not Active | Not Active |  |  | Not Active | Not Active |  |  | Not Active | Not Active | Not Active | Not Active | Not Active |  |  |  |  |  |  |
| C[N+](C)(C)CCOC(=O)CCC(=O)OCC[N+](C)(C)C.[Cl-].[Cl-] [SUCCINYLCHOLINE CHLORIDE] | Not Active | Not Active |  |  | Not Active | Not Active |  |  | Not Active | Not Active | Not Active | Not Active | Not Active |  |  |  |  |  |  |
| CCCCC(=O)N(Cc1ccc(-c2ccccc2-c2nnn[nH]2)cc1)[C@H](C(=O)O)C(C)C | Not Active | Not Active |  |  | Not Active | Not Active |  |  | Not Active | Not Active | Not Active | Not Active | Not Active |  |  |  |  |  |  |
| CN1CCN(C2=Nc3cc(Cl)ccc3Nc3ccccc32)CC1 [CLOZAPINE] | Not Active | Not Active |  |  | Not Active | Not Active |  |  | Not Active | Not Active | Not Active |  | Not Active |  |  |  |  |  |  |
| Oc1ccc2c3c1O[C@H]1[C@@H](O)CC[C@@]4(O)[C@@H](C2)N(CC2CCC2)CC[C@]314 [NALBUPHINE] |  |  |  |  |  |  |  |  | Not Active | Not Active | Not Active | Not Active | Not Active |  |  |  |  |  |  |
| CN(C)C(=O)C(CCN1CCC(O)(c2ccc(Cl)cc2)CC1)(c1ccccc1)c1ccccc1 [LOPERAMIDE] | Not Active | Not Active |  |  | Not Active | Not Active |  |  | Not Active | Not Active | Not Active | Not Active | Not Active |  |  |  |  |  |  |
| O=C(O)c1ccccc1O [SALICYLIC ACID] | Not Active | Not Active |  |  | Not Active | Not Active |  |  | Not Active | Not Active | Not Active | Not Active | Not Active |  |  |  |  |  |  |
| Nc1ccc(S(=O)(=O)NC(=O)c2ccccc2)cc1 [SULFABENZAMIDE] | Not Active | Not Active |  |  | Not Active | Not Active |  |  | Not Active | Not Active | Not Active | Not Active | Not Active |  |  |  |  |  |  |
| C[C@@](Cc1ccc(O)c(O)c1)(NN)C(=O)O.O [CARBIDOPA] | Not Active | Not Active |  |  | Not Active | Not Active |  |  | Not Active | Not Active | Not Active | Not Active | Not Active |  |  |  |  |  |  |
| CCCCCCCCNC(C)C(O)c1ccc(SC(C)C)cc1 (stereo not drawn) [SULOCTIDIL] |  |  | 0.544 | 0.311 | Not Active | Not Active |  |  | Not Active | Not Active | Not Active |  | Not Active |  |  |  |  |  |  |
| CN1CCN(CCCN2c3ccccc3Sc3ccc(C(F)(F)F)cc32)CC1 [TRIFLUOPERAZINE] |  |  |  |  | Not Active | Not Active |  |  | Not Active | Not Active | Not Active | Not Active | Not Active |  |  |  |  |  |  |
| C[C@]12C=CC(=O)C=C1CC[C@@H]1[C@@H]2C(=O)C[C@@]2(C)[C@H]1CC[C@]2(O)C(=O)CO [PREDNISONE] |  |  |  |  |  |  |  |  | Not Active | Not Active | Not Active | Not Active | Not Active |  |  |  |  |  |  |
| OCCOCCN1CCN(C2=Nc3ccccc3Sc3ccccc32)CC1 [QUETIAPINE] | Not Active | Not Active |  |  | Not Active | Not Active |  |  | Not Active | Not Active | Not Active |  | Not Active |  |  |  |  |  |  |
| CC(C)NC[C@H](O)COc1cccc2ccccc12 [LEVOPROPRANOLOL] | Not Active | Not Active |  |  | Not Active | Not Active |  |  | Not Active | Not Active | Not Active |  | Not Active |  |  |  |  |  |  |
| O=C(O)CCCCC1CCSS1 (stereo not drawn) [LIPOIC ACID, ALPHA] | Not Active | Not Active |  |  | Not Active | Not Active |  |  | Not Active | Not Active | Not Active | Not Active | Not Active |  |  |  |  |  |  |
| CC(C)NC[C@@H](O)COc1cccc2ccccc12 [DEXPROPRANOLOL] | Not Active | Not Active |  |  | Not Active | Not Active |  |  | Not Active | Not Active | Not Active |  | Not Active |  |  |  |  |  |  |
| Cc1ccc(C(=O)c2ccc(CC(=O)O)n2C)cc1 [TOLMETIN] | Not Active | Not Active |  |  | Not Active | Not Active |  |  |  | Not Active | Not Active | Not Active | Not Active | 0.041 |  |  |  |  |  |
| CC(=O)OCC(COC(C)=O)OC(C)=O [TRIACETIN] | Not Active | Not Active |  |  | Not Active | Not Active |  |  | Not Active | Not Active | Not Active | Not Active | Not Active |  |  |  |  |  |  |
| TRANSPLATIN | Not Active | Not Active |  |  | Not Active | Not Active |  |  | Not Active | Not Active | Not Active | Not Active | Not Active |  | Not Active | Not Active | Not Active | Not Active | Not Active |
| O=C(O)COc1ccc(C(=O)c2cccs2)c(Cl)c1Cl | Not Active | Not Active |  |  | Not Active | Not Active |  |  | Not Active | Not Active | Not Active | Not Active | Not Active |  |  |  |  |  |  |
